Results taken from PMC6968633, “Synthesis, antibacterial and anticancer activity, and docking study of aminoguanidines containing an alkynyl moiety” (Journal of Enzyme Inhibition and Medicinal Chemistry, 2019).
≈ marks a conversion by molar mass, not a printed value.

Assays:
[1] = test system: Staphyiococcus aureus CMCC 25923; assay: Antibacterial MIC, serial dilution; format: cell-based, Staphylococcus aureus; details: Staphylococcus aureus, CMCC25923; S. aureus CMCC 25923, 24 h, 37 °C; read-out: MIC
Description: (§1) Test bacteria were grown to mid-log phase in Mueller–Hinton broth (MHB) or Tryptone Soya Broth (TSB) and diluted 1000-fold in the same medium. Bacteria (10^5 CFU/mL) were inoculated into MHB or TSB and dispensed at 0.2 ml/well into a 96-well microtiter plate. As positive controls, gatifloxacin, moxifloxacin, norfloxacin, oxacillin, and penicillin were used. […] Bacterial growth was determined by measuring the absorption at 630 nm using a microplate reader. All experiments were carried out three times.
(§2) The evaluation of antibacterial activity of all compounds (3a–3j and 6a–6k) was performed by a serial dilution method to determine the MIC against a panel of pathogens comprising five Gram-positive strains (S. aureus (CMCC(B) 26003 and CMCC 25923), Streptococcus mutans BNCC 336931, Enterococcus faecalis CMCC 29212, and Bacillus subtilis CMCC 63501), four Gram-negative strains (E. coli (CMCC 25922 and CMCC 44568) and P. aeruginosa (CMCC 27853 and CMCC 10104)), as well as three methicillin-resistant clinical isolates (S. aureus ATCC 43300 and ATCC 33591, P. aeruginosa ATCC BAA-2111). The results are described in Tables 1 and 2. Gatifloxacin, moxifloxacin, norfloxacin, oxacillin, and penicillin were used as positive controls.

[2] = test system: Bacillus subtilis CMCC 63501; assay: Antibacterial MIC, serial dilution; format: cell-based; details: Bacillus subtilis, CMCC63501; B. subtilis CMCC 63501, 24 h, 37 °C; read-out: MIC
Description: as §1, §2

[3] = test system: Enterococcus faecalis CMCC 29212; assay: Antibacterial MIC, serial dilution; format: cell-based; details: Enterococcus faecalis, CMCC29212; E. faecalis CMCC 29212, 24 h, 37 °C; read-out: MIC
Description: as §1, §2

[4] = test system: Escherichia coli CMCC 25922; assay: Antibacterial MIC, serial dilution; format: cell-based; details: Escherichia coli, CMCC25922; E. coli CMCC 25922, 24 h, 37 °C; read-out: MIC
Description: as §1, §2

[5] = test system: Escherichia coli CMCC 44568; assay: Antibacterial MIC, serial dilution; format: cell-based; details: Escherichia coli, CMCC44568; E. coli CMCC 44568, 24 h, 37 °C; read-out: MIC
Description: as §1, §2

[6] = test system: Pseudomonas aeruginosa CMCC 10104; assay: Antibacterial MIC, serial dilution; format: cell-based; details: Pseudomonas aeruginosa, CMCC10104; P. aeruginosa CMCC 10104, 24 h, 37 °C; read-out: MIC
Description: as §1, §2

[7] = test system: Pseudomonas aeruginosa CMCC 27853; assay: Antibacterial MIC, serial dilution; format: cell-based; details: Pseudomonas aeruginosa, CMCC27853; P. aeruginosa CMCC 27853, 24 h, 37 °C; read-out: MIC
Description: as §1, §2

[8] = test system: Staphylococcus aureus CMCC(B)26003; assay: Antibacterial MIC, serial dilution; format: cell-based; details: Staphylococcus aureus; S. aureus CMCC(B)26003, 24 h, 37 °C; read-out: MIC
Description: as §1, §2

[9] = test system: Streptococcus mutans BNCC 336931; assay: Antibacterial MIC, serial dilution; format: cell-based; details: Streptococcus mutans, BNCC336931; S. mutans BNCC 336931, 24 h, 37 °C; read-out: MIC
Description: as §1, §2

[10] = test system: Staphylococcus aureus ATCC 33591; assay: Antibacterial MIC, multidrug-resistant clinical isolate; format: cell-based; details: Staphylococcus aureus, ATCC33591; multidrug-resistant S. aureus ATCC 33591; read-out: MIC
Description: as §1, §2

[11] = test system: Staphylococcus aureus ATCC 43300; assay: as above; format: cell-based; details: Staphylococcus aureus, ATCC43300; multidrug-resistant S. aureus ATCC 43300; read-out: MIC
Description: as §1, §2

[12] = test system: A549; assay: Cytotoxicity, CCK-8 assay; format: cell-based; details: Homo sapiens, A549 lung cancer cells, 48 h
Description: (§3) A lung cancer cell line (A549), gastric cancer cell line (SGC7901) and human hepatocytes (L02) were used to test the anticancer activity and cytotoxicity of the new compounds. 5-Fluorouracil (5-FU) was used as the positive control against cancer cell lines. The A549, SGC7901 and L02 cells were grown in Dulbecco’s modified Eagle’s medium (DMEM) supplemented with 10% foetal bovine serum (FBS) and antibiotics (100 U/mL penicillin-streptomycin). Cells at 80–90% confluence were split by trypsin (0.25% in PBS; pH 7.4), and the medium was changed at 24 h intervals. The cells were cultured at 37 °C in a 5% CO2 incubator. The cells were passaged three times, then approximately 1 × 10^4 cells were seeded into each well of a 96-well plate and allowed to incubate to allow attachment of the cells to the surface. After 24 h, the medium was replaced with DMEM supplemented with 10% FBS containing various concentrations (0.1, 0.3, 1, 3, 10, and 30 μg/mL) of test compounds. Each concentration was tested in triplicate. After 48 h treatment, 20 µL of CCK-8 solution was added to each well and the optical density measured at 450 nm after 3 h using a microplate reader. The IC50 values were defined as the concentrations inhibiting 50% of cell growth.

[13] = test system: SGC7901; assay: Cytotoxicity, CCK-8 assay; format: cell-based; details: Homo sapiens, SGC-7901, SGC7901 gastric cancer cells, 48 h
Description: as §3

[14] = test system: L02; assay: Cytotoxicity, CCK-8 assay, normal cell line; format: cell-based; details: L02 normal human hepatocytes, 48 h
Description: as §3

[15] = test system: Pseudomonas aeruginosa ATCC BAA-2111; assay: Antibacterial MIC, multidrug-resistant clinical isolate; format: cell-based; details: ATCCBAA2111, multidrug-resistant P. aeruginosa ATCC BAA-2111
Description: as §1, §2

SMILES	MIC [1]	MIC [2]	MIC [3]	MIC [4]	MIC [5]	MIC [6]	MIC [7]	MIC [8]	MIC [9]	MIC [10]	MIC [11]	melting point	MIC [15]	IC50 [12]	IC50 [13]	IC50 [14]
N=C(N)NN=Cc1ccc(C#Cc2ccccc2Cl)cc1 [Compound 3e, 2-(4-((2-Chlorophenyl)ethynyl)benzylidene)hydrazine-1-carboximidamide]	2 µg/mL (≈ 6.74 µM)	1 µg/mL (≈ 3.37 µM)	0.5 µg/mL (≈ 1.68 µM)	2 µg/mL (≈ 6.74 µM)	8 µg/mL (≈ 27 µM)	4 µg/mL (≈ 13.5 µM)	> 128 µg/mL	0.5 µg/mL (≈ 1.68 µM)	2 µg/mL (≈ 6.74 µM)	0.5 µg/mL (≈ 1.68 µM)	2 µg/mL (≈ 6.74 µM)	200 to 203 °C	–	4.57 µg/mL (≈ 15.4 µM)	0.45 µg/mL (≈ 1.52 µM)	12.4 µg/mL (≈ 41.9 µM)
N=C(N)NN=Cc1ccc(C#Cc2cccc(Cl)c2)cc1 [Compound 3f, 2-(4-((3-Chlorophenyl)ethynyl)benzylidene)hydrazine-1-carboximidamide]	1 µg/mL (≈ 3.37 µM)	0.5 µg/mL (≈ 1.68 µM)	0.5 µg/mL (≈ 1.68 µM)	2 µg/mL (≈ 6.74 µM)	4 µg/mL (≈ 13.5 µM)	2 µg/mL (≈ 6.74 µM)	> 128 µg/mL	1 µg/mL (≈ 3.37 µM)	2 µg/mL (≈ 6.74 µM)	–	–	213 to 214 °C	–	2.55 µg/mL (≈ 8.59 µM)	0.3 µg/mL (≈ 1.01 µM)	10.2 µg/mL (≈ 34.5 µM)
N=C(N)NN=Cc1ccc(C#Cc2cccc(Br)c2)cc1 [Compound 3i, 2-(4-((3-Bromophenyl)ethynyl)benzylidene)hydrazine-1-carboximidamide]	2 µg/mL (≈ 5.86 µM)	1 µg/mL (≈ 2.93 µM)	1 µg/mL (≈ 2.93 µM)	2 µg/mL (≈ 5.86 µM)	2 µg/mL (≈ 5.86 µM)	2 µg/mL (≈ 5.86 µM)	> 128 µg/mL	1 µg/mL (≈ 2.93 µM)	1 µg/mL (≈ 2.93 µM)	0.5 µg/mL (≈ 1.47 µM)	2 µg/mL (≈ 5.86 µM)	223 to 225 °C	–	4.03 µg/mL (≈ 11.8 µM)	1.26 µg/mL (≈ 3.69 µM)	19.6 µg/mL (≈ 57.5 µM)

Further lines, with some results ahead:

MIC [1]	MIC [2]	MIC [3]	MIC [4]	MIC [5]	MIC [6]	MIC [7]	MIC [8]	MIC [9]	MIC [10]	MIC [11]	melting point	MIC [15]	SMILES	IC50 [12]	IC50 [13]	IC50 [14]
> 128 µg/mL	0.5 µg/mL (≈ 1.75 µM)	0.5 µg/mL (≈ 1.75 µM)	128 µg/mL (≈ 447 µM)	128 µg/mL (≈ 447 µM)	1 µg/mL (≈ 3.49 µM)	> 128 µg/mL	0.5 µg/mL (≈ 1.75 µM)	0.5 µg/mL (≈ 1.75 µM)	0.5 µg/mL (≈ 1.75 µM)	4 µg/mL (≈ 14 µM)	209 to 212 °C	> 64 µg/mL	N=C(N)NN=Cc1ccc(C#CC#Cc2ccccc2)cc1 [Compound 6a, 2-(4-(Phenylbuta-1,3-diyn-1-yl)benzylidene)hydrazine-1-carboximidamide]	2.49 µg/mL (≈ 8.7 µM)	1.63 µg/mL (≈ 5.69 µM)	13.4 µg/mL (≈ 46.7 µM)
1 µg/mL (≈ 3.29 µM)	4 µg/mL (≈ 13.1 µM)	0.5 µg/mL (≈ 1.64 µM)	8 µg/mL (≈ 26.3 µM)	128 µg/mL (≈ 421 µM)	128 µg/mL (≈ 421 µM)	> 128 µg/mL	0.25 µg/mL (≈ 0.821 µM)	0.5 µg/mL (≈ 1.64 µM)	1 µg/mL (≈ 3.29 µM)	8 µg/mL (≈ 26.3 µM)	218 to 220 °C	–	N=C(N)NN=Cc1ccc(C#CC#Cc2ccccc2F)cc1 [Compound 6b, 2-(4-((2-Fluorophenyl)buta-1,3-diyn-1-yl)benzylidene)hydrazine-1-carboximidamide]	2.22 µg/mL (≈ 7.29 µM)	1.37 µg/mL (≈ 4.5 µM)	18 µg/mL (≈ 59.1 µM)
